Source: ChEMBL document CHEMBL1201862, “PubChem BioAssay data set” (2004)
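Five concentrations, 48 hours, 96-well plates. Abbreviation: GI50, concentration required for 50% inhibition of growth.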 Activity calls are given as the source filed them. Rule as the data show it: active = GI50 up to about 1.1 µM and inactive = higher.

Assays:
Assay in all cases: DTP human tumour cell line panel, 48 h
SNB-19 = tested on: SNB-19
ACHN = tested on: ACHN
EKVX = tested on: EKVX
U-251 = tested on: U-251
RXF 393 = tested on: RXF 393
SW-620 = tested on: SW-620
UACC-257 = tested on: UACC-257
UACC-62 = tested on: UACC-62
HCC 2998 = tested on: HCC 2998
HCT-116 = tested on: HCT-116
SF-268 = tested on: SF-268
SK-MEL-28 = tested on: SK-MEL-28
SK-MEL-2 = tested on: SK-MEL-2
IGROV-1 = tested on: IGROV-1
HOP-62 = tested on: HOP-62
DLD-1 = tested on: DLD-1
OVCAR-3 = tested on: OVCAR-3
NCI-H460 = tested on: NCI-H460

Measured: GI50

CCOc1ccccc1N1C(=O)C(=O)C(c2nc3ccccc3o2)/C(=N\N)C1=O (stereo unspecified)
inactive: SNB-19 > 100 µM | ACHN 88.1 µM | EKVX > 100 µM | U-251 > 100 µM | RXF 393 > 100 µM | SW-620 > 100 µM | UACC-257 49.9 µM | UACC-62 > 100 µM | HCC 2998 > 100 µM | HCT-116 79.8 µM | SF-268 55 µM | SK-MEL-28 > 100 µM | SK-MEL-2 > 100 µM | IGROV-1 > 100 µM | HOP-62 > 100 µM | DLD-1 > 100 µM | OVCAR-3 > 100 µM

CN(C)c1n/c(=N/c2ncn[nH]2)ss1
inactive: SNB-19 > 100 µM | ACHN > 100 µM | EKVX > 100 µM | U-251 > 100 µM | RXF 393 > 100 µM | SW-620 > 100 µM | UACC-257 > 100 µM | UACC-62 > 100 µM | NCI-H460 > 100 µM | HCC 2998 > 100 µM | HCT-116 > 100 µM | SF-268 > 100 µM | SK-MEL-28 > 100 µM | SK-MEL-2 > 100 µM | IGROV-1 > 100 µM | HOP-62 > 100 µM | DLD-1 > 100 µM

CCOC(=O)C(=O)Nc1ccc(C)c(C)c1
inactive: SNB-19 > 100 µM | ACHN > 100 µM | EKVX > 100 µM | U-251 > 100 µM | RXF 393 > 100 µM | SW-620 5.81 µM | UACC-257 > 100 µM | UACC-62 > 100 µM | NCI-H460 > 60.4 µM | HCC 2998 > 100 µM | HCT-116 > 84.7 µM | SF-268 > 100 µM | SK-MEL-28 > 100 µM | SK-MEL-2 > 100 µM | IGROV-1 > 100 µM | HOP-62 > 100 µM | DLD-1 > 100 µM

COc1cc2cc(OC(C)=O)c3cc4c(cc3c2c(OC)c1OC)OCO4
inactive: SNB-19 > 100 µM | ACHN > 100 µM | EKVX > 100 µM | U-251 > 100 µM | RXF 393 > 100 µM | SW-620 > 100 µM | UACC-257 > 100 µM | NCI-H460 > 100 µM | HCC 2998 > 100 µM | HCT-116 > 100 µM | SF-268 > 100 µM | SK-MEL-28 > 100 µM | SK-MEL-2 > 100 µM | IGROV-1 > 100 µM | HOP-62 > 100 µM | DLD-1 > 100 µM | OVCAR-3 > 100 µM

COC(=O)C1C(=O)CC2CCCCC21 (stereo unspecified)
inactive: SNB-19 > 100 µM | ACHN > 100 µM | U-251 > 100 µM | RXF 393 > 100 µM | SW-620 > 100 µM | UACC-257 > 100 µM | UACC-62 > 100 µM | NCI-H460 > 100 µM | HCC 2998 > 100 µM | HCT-116 > 100 µM | SF-268 > 100 µM | SK-MEL-28 > 100 µM | SK-MEL-2 > 100 µM | IGROV-1 > 100 µM | HOP-62 > 100 µM | DLD-1 > 100 µM | OVCAR-3 > 100 µM

CC1(C=O)C(=O)CCC2(C)C3CC(=O)OC3CCC12 (stereo unspecified)
inactive: SNB-19 > 100 µM | ACHN > 100 µM | EKVX > 100 µM | U-251 > 100 µM | RXF 393 > 100 µM | SW-620 > 100 µM | UACC-257 > 100 µM | UACC-62 > 100 µM | NCI-H460 > 100 µM | HCC 2998 > 100 µM | SF-268 > 100 µM | SK-MEL-28 > 100 µM | SK-MEL-2 > 100 µM | IGROV-1 > 100 µM | HOP-62 > 100 µM | DLD-1 > 100 µM | OVCAR-3 > 100 µM

Cc1cccc(C(C)(C)C)c1NC(=O)C(=O)C(c1cnc2ccccc2n1)[N+](=O)[O-] (stereo unspecified)
inactive: SNB-19 > 100 µM | ACHN > 100 µM | EKVX > 100 µM | U-251 > 100 µM | RXF 393 > 100 µM | SW-620 > 100 µM | UACC-257 > 100 µM | UACC-62 > 100 µM | NCI-H460 62.2 µM | HCC 2998 > 100 µM | HCT-116 > 100 µM | SF-268 > 100 µM | SK-MEL-28 > 100 µM | SK-MEL-2 > 100 µM | IGROV-1 > 100 µM | HOP-62 > 100 µM | DLD-1 > 100 µM

Cc1ccc(SCC(=O)C2=C(O)CCCC2=O)cc1
inactive: SNB-19 > 100 µM | ACHN > 100 µM | EKVX > 100 µM | U-251 > 100 µM | RXF 393 > 100 µM | SW-620 > 100 µM | UACC-257 > 100 µM | UACC-62 > 100 µM | NCI-H460 > 100 µM | HCT-116 > 100 µM | SF-268 > 100 µM | SK-MEL-28 > 100 µM | SK-MEL-2 > 100 µM | IGROV-1 > 100 µM | HOP-62 > 100 µM | DLD-1 > 100 µM | OVCAR-3 > 100 µM
